Data published in PMC5415745, “Drug-transporter mediated interactions between anthelminthic and antiretroviral drugs across the Caco-2 cell monolayers” (BMC Pharmacology & Toxicology, 2017).
Values joined by “and” are separate entries in the source; they are usually repeats but may differ in a detail not shown here. Equal entries are not always repeated.

How the values were obtained:
P-gp = settings: CEM parental and CEMVBL cells; cited from earlier work
in vitro = settings: human, Mean
Method: (§1) The monolayers used were of between passage 20 and 65 after 15 days of growth. Each experiment was performed in duplicate using two six well-transwell culture plates. The cells were trypsinized as described earlier, and after centrifugation the pellet re-suspended in fresh DMEM (+15%), and the cells counted using a cell counter. A volume of DMEM was added enough to give a cell count of 2 × 10^6 cells per ml, and cells were seeded on the transwell culture plates at a density of 2 × 10^4 cells/cm^2 (~ 100,000 cells per well, since insert membrane growth area = 4.67 cm^2). The plates were then incubated at 37°C and 10% CO2 in a humidified chamber and the media changed every 2-3 days, by aspirating using a suction pump and replacing with an equal volume of DMEM. Transport experiments were conducted 15 to 20 days after seeding. The TEER across the cell monolayers was monitored using a Millicell-ERS in order to assess cell monolayer integrity and the monolayers considered appropriate for the experiment when the TEER values were typically above 500 cm^2 [49, 70].
(§2) Prior to transport studies, each monolayer was washed and equilibrated with the transport medium (DMEM without FBS). The medium was removed from all AP and BL compartments of the transwells and replaced with 2 ml of the transport medium (DMEM alone), to both compartments and equilibrated for 1 h (37°C, 10% CO2 incubator), after which the TEER was re-assessed and labeled. The medium was then removed from both compartments and replaced with an equal volume of pre-warmed medium containing the compound of interest at the appropriate concentration. For the AP → BL transport, 2 ml of medium containing the desired drug was placed in the AP chamber and 2 ml of the medium alone in the BL chamber, whereas 2 ml of medium containing the drug was placed in the BL and 2 ml of medium on the AP chamber for the BL → AP transport [71]. The effect of the second drug was then assessed by adding the medium containing the original drug and the drug under study to the AP side for AP → BL transport with the medium containing the original drug alone in the BL chamber, and vice-versa for the BL → AP transport. Transport in each direction was done in triplicate. The transwell plates were then incubated (37°C, 10% CO2 incubator), and 100μl of the samples from the AP and BL compartments were taken at 60, 120, 180 and 240 min and quantified either by HPLC method described earlier [45], or by the use of a liquid scintillating counter depending on the drug under study. The HPLC method involved liquid - liquid extraction followed by ultra-high performance liquid chromatography using a Hypurity C18 column and ultraviolet detection set at a wavelength of 215 nm. The mobile phase consisted of ammonium formate, acetonitrile and methanol (57:38:5 v/v). Separation was facilitated via isocratic elution at a flow rate of 1.5 ml/min. For HPLC assays, the concentration used for each drug was 20μg/ml. The concentrations that offered the best detection were selected for radiolabeled assay. […] The integrity of the CCM during the experiment was monitored by measuring the TEER at the beginning (0 min) and the end of the experiment (240min).
(§3) The results were expressed as apparent permeability coefficient (Papp, unit: cms^-1), the amount of compound transported per second. Papp values were calculated for both AP to BL (PappAtoB), and BL to AP (PappBtoA) movement of the compound. Papp was calculated using the following equation [52, 72]: • Papp (cm/s) = (dQ/dt) x (1/(ACO) • dQ/dt = Steady-state flux (dpm s^-1 or μmol s^-1) • A = Surface area of the filter (cm^2) • CO = Initial concentration in the donor chamber (dpm litre ^-1 or μM)
(§4) The quotient of secretory permeability and absorptive permeability (PappBL-AP/PappAP-BL) constitutes the efflux ratio, while the reverse (PappAP-BL/PappBL-AP) is the uptake ratio [71].

Caco-2 cell monolayers = assay: Bidirectional (AP→BL, BL→AP) drug transport across Caco-2 cell monolayers in transwells: cumulative transport, Papp, efflux ratio; HPLC or radiolabeled assay; settings: for Basal to apical transport (cumulative, receiver): individual samples 1-3; for PappAB / PappBA: individual samples; for Apical to basal transport / Basal to apical transport: samples 1-3
Method: as §1, §2, §3, §4

[1] = PZQ alone (EFV experiment), 60 min
[2] = PZQ alone (EFV experiment), 120 min, mean
[3] = PZQ alone (EFV experiment), 120 min
[4] = PZQ alone (EFV experiment), 180 min, mean
[5] = PZQ alone (EFV experiment), 180 min
[6] = PZQ alone (EFV experiment), 240 min, mean
[7] = PZQ alone (EFV experiment), 240 min
[8] = PZQ alone (NVP experiment), 60 min, mean
[9] = PZQ alone (NVP experiment), 60 min
[10] = PZQ alone (NVP experiment), 120 min, mean
[11] = PZQ alone (NVP experiment), 120 min
[12] = PZQ alone (NVP experiment), 180 min, mean
[13] = PZQ alone (NVP experiment), 180 min
[14] = PZQ alone (NVP experiment), 240 min, mean
[15] = PZQ alone (NVP experiment), 240 min
[16] = PZQ alone (SQV experiment), 60 min, mean
[17] = PZQ alone (SQV experiment), 60 min
[18] = PZQ alone (SQV experiment), 120 min, mean
[19] = PZQ alone (SQV experiment), 120 min
[20] = PZQ alone (SQV experiment), 180 min, mean
[21] = PZQ alone (SQV experiment), 180 min
[22] = PZQ alone (SQV experiment), 240 min, mean
[23] = PZQ alone (SQV experiment), 240 min
[24] = PZQ alone (SQV experiment), after 60min
[25] = PZQ alone (SQV experiment), after 60min, mean
[26] = labelled drug is the interacting drug

Papp A→B at 7200 sec (in vitro; Caco-2, PappAB): 63.8 ×10⁻⁶ cm/s
Papp A→B at 10800 sec (in vitro; Caco-2, PappAB): 57.7 ×10⁻⁶ cm/s
Papp A→B at 14400 sec (in vitro; Caco-2, PappAB): 53.9 ×10⁻⁶ cm/s
Papp B→A at 7200 sec (in vitro; Caco-2, PappBA): 57.2 ×10⁻⁶ cm/s
Papp B→A at 10800 sec (in vitro; Caco-2, PappBA): 47.9 ×10⁻⁶ cm/s
Papp B→A at 14400 sec (in vitro; Caco-2, PappBA): 49.6 ×10⁻⁶ cm/s
Apical to basal transport (cumulative, receiver), Mean (Caco-2 cell monolayers; 60 min, mean n=3): 15.06 pmol
Basal to apical transport (cumulative, receiver), Mean (Caco-2 cell monolayers; 60 min, mean n=3): 16.60 pmol
PappAB Mean (Caco-2 cell monolayers; 3600 sec, mean n=3): 76.4 ×10⁻⁶ cm/s
PappBA Mean (Caco-2 cell monolayers; 3600 sec, mean n=3): 85.8 ×10⁻⁶ cm/s
Apical to basal transport (cumulative, receiver), Mean (Caco-2 cell monolayers; 120 min, mean n=3): 22.74 pmol
Basal to apical transport (cumulative, receiver), Mean (Caco-2 cell monolayers; 120 min, mean n=3): 20.81 pmol
Basal to apical transport (cumulative, receiver) (Caco-2 cell monolayers; 180 min): 26.18 pmol and 23.22 pmol
Apical to basal transport (cumulative, receiver), Mean (Caco-2 cell monolayers; 180 min, mean n=3): 27.30 pmol
Basal to apical transport (cumulative, receiver), Mean (Caco-2 cell monolayers; 180 min, mean n=3): 23.94 pmol
Apical to basal transport (cumulative, receiver), Mean (Caco-2 cell monolayers; 240 min, mean n=3): 32.95 pmol
Basal to apical transport (cumulative, receiver), Mean (Caco-2 cell monolayers; 240 min, mean n=3): 29.18 pmol
Basal to apical transport Mean (Caco-2 cell monolayers; PZQ alone (EFV experiment), 60 min, mean): 26.40 pmol
Apical to basal transport Mean (Caco-2 cell monolayers; [2]): 37.71 pmol
Basal to apical transport Mean (Caco-2 cell monolayers; [2]): 46.61 pmol
Apical to basal transport Mean (Caco-2 cell monolayers; [4]): 54.47 pmol
Basal to apical transport Mean (Caco-2 cell monolayers; [4]): 58.63 pmol
Apical to basal transport Mean (Caco-2 cell monolayers; [6]): 71.45 pmol
Basal to apical transport Mean (Caco-2 cell monolayers; [6]): 67.31 pmol
Basal to apical transport (Caco-2 cell monolayers; [7]): 74.78 pmol and 75.20 pmol
Apical to basal transport Mean (Caco-2 cell monolayers; [8]): 23.43 pmol
Basal to apical transport Mean (Caco-2 cell monolayers; [8]): 25.07 pmol
Apical to basal transport Mean (Caco-2 cell monolayers; [10]): 39.93 pmol
Basal to apical transport Mean (Caco-2 cell monolayers; [10]): 49.95 pmol
Apical to basal transport Mean (Caco-2 cell monolayers; [12]): 50.15 pmol
Basal to apical transport Mean (Caco-2 cell monolayers; [12]): 54.69 pmol
Basal to apical transport (Caco-2 cell monolayers; [13]): 53.14 pmol and 59.00 pmol
Apical to basal transport Mean (Caco-2 cell monolayers; [14]): 69.10 pmol
Basal to apical transport Mean (Caco-2 cell monolayers; [14]): 73.24 pmol
Apical to basal transport Mean (Caco-2 cell monolayers; [16]): 15.06 pmol
Basal to apical transport Mean (Caco-2 cell monolayers; [16]): 16.60 pmol
Apical to basal transport Mean (Caco-2 cell monolayers; [18]): 22.74 pmol
Basal to apical transport Mean (Caco-2 cell monolayers; [18]): 20.81 pmol
Apical to basal transport Mean (Caco-2 cell monolayers; [20]): 27.30 pmol
Basal to apical transport Mean (Caco-2 cell monolayers; [20]): 23.94 pmol
Apical to basal transport (Caco-2 cell monolayers; [21]): 28.02 pmol
Basal to apical transport (Caco-2 cell monolayers; [21]): 26.18 pmol and 23.22 pmol
Apical to basal transport Mean (Caco-2 cell monolayers; [22]): 32.95 pmol
Basal to apical transport Mean (Caco-2 cell monolayers; [22]): 29.18 pmol
PappAB (Caco-2 cell monolayers; [24]): 8.99 ×10⁻⁶ cm/s and 6.25 ×10⁻⁶ cm/s and 7.68 ×10⁻⁶ cm/s
PappBA (Caco-2 cell monolayers; [24]): 8.46 ×10⁻⁶ cm/s and 7.75 ×10⁻⁶ cm/s and 9.54 ×10⁻⁶ cm/s
PappAB Mean (Caco-2 cell monolayers; [25]): 7.64 ×10⁻⁶ cm/s
PappBA Mean (Caco-2 cell monolayers; [25]): 8.58 ×10⁻⁶ cm/s
ER Mean (Caco-2 cell monolayers; PZQ alone, mean, MOESM4): 1.14
PappAB Mean (x10^6) (Caco-2 cell monolayers; PZQ alone, mean, MOESM4): 7.64 x10^6 cm/s
Effect on the (efflux) transport of SQV (Caco-2 cell monolayers; [26]): did not alter
Structure (SMILES): O=C(C1CCCCC1)N1CC(=O)N2CCc3ccccc3C2C1 (centres unmarked) [PZQ, praziquantel]
P-gp substrate / inhibitor status (P-gp): neither a substrate nor an inhibitor of P-gp
Basal to apical transport (cumulative, receiver) (Caco-2 cell monolayers; 60 min): 16.40 pmol and 16.26 pmol and 17.14 pmol
PappAB (Caco-2 cell monolayers; 3600 sec): 89.9 ×10⁻⁶ cm/s and 62.5 ×10⁻⁶ cm/s and 76.8 ×10⁻⁶ cm/s
PappBA (Caco-2 cell monolayers; 3600 sec): 84.6 ×10⁻⁶ cm/s and 77.5 ×10⁻⁶ cm/s and 95.4 ×10⁻⁶ cm/s
Basal to apical transport (cumulative, receiver) (Caco-2 cell monolayers; 120 min): 20.68 pmol and 19.96 pmol and 21.78 pmol
PappAB (Caco-2 cell monolayers; 7200 sec): 65.5 ×10⁻⁶ cm/s and 65.7 ×10⁻⁶ cm/s and 60.2 ×10⁻⁶ cm/s
PappBA (Caco-2 cell monolayers; 7200 sec): 56.2 ×10⁻⁶ cm/s and 57.9 ×10⁻⁶ cm/s and 57.5 ×10⁻⁶ cm/s
PappAB (Caco-2 cell monolayers; 10800 sec): 58.3 ×10⁻⁶ cm/s and 51.6 ×10⁻⁶ cm/s and 63.2 ×10⁻⁶ cm/s
PappBA (Caco-2 cell monolayers; 10800 sec): 56.6 ×10⁻⁶ cm/s and 41.1 ×10⁻⁶ cm/s and 46 ×10⁻⁶ cm/s
Basal to apical transport (cumulative, receiver) (Caco-2 cell monolayers; 240 min): 26.24 pmol and 28.48 pmol and 32.82 pmol
PappAB (Caco-2 cell monolayers; 14400 sec): 54.4 ×10⁻⁶ cm/s and 52 ×10⁻⁶ cm/s and 55.5 ×10⁻⁶ cm/s
PappBA (Caco-2 cell monolayers; 14400 sec): 50.1 ×10⁻⁶ cm/s and 43.3 ×10⁻⁶ cm/s and 55.4 ×10⁻⁶ cm/s
Apical to basal transport (Caco-2 cell monolayers; [1]): 33.50 pmol and 22.28 pmol and 39.18 pmol
Basal to apical transport (Caco-2 cell monolayers; [1]): 25.94 pmol and 27.98 pmol and 25.28 pmol
Apical to basal transport (Caco-2 cell monolayers; [3]): 45.74 pmol and 32.50 pmol and 34.88 pmol
Basal to apical transport (Caco-2 cell monolayers; [3]): 49.34 pmol and 35.84 pmol and 54.66 pmol
Apical to basal transport (Caco-2 cell monolayers; [5]): 46.84 pmol and 53.00 pmol and 63.58 pmol
Basal to apical transport (Caco-2 cell monolayers; [5]): 53.14 pmol and 51.00 pmol and 71.74 pmol
Apical to basal transport (Caco-2 cell monolayers; [7]): 50.62 pmol and 68.96 pmol and 94.76 pmol
Apical to basal transport (Caco-2 cell monolayers; [9]): 22.50 pmol and 22.28 pmol and 25.50 pmol
Basal to apical transport (Caco-2 cell monolayers; [9]): 23.94 pmol and 25.98 pmol and 25.28 pmol
Apical to basal transport (Caco-2 cell monolayers; [11]): 34.88 pmol and 39.18 pmol and 45.74 pmol
Basal to apical transport (Caco-2 cell monolayers; [11]): 49.34 pmol and 45.84 pmol and 54.66 pmol
Apical to basal transport (Caco-2 cell monolayers; [13]): 46.84 pmol and 53.00 pmol and 50.62 pmol
Apical to basal transport (Caco-2 cell monolayers; [15]): 63.58 pmol and 68.96 pmol and 74.76 pmol
Basal to apical transport (Caco-2 cell monolayers; [15]): 65.74 pmol and 78.78 pmol and 75.20 pmol
Apical to basal transport (Caco-2 cell monolayers; [17]): 16.68 pmol and 13.02 pmol and 15.48 pmol
Basal to apical transport (Caco-2 cell monolayers; [17]): 16.40 pmol and 16.26 pmol and 17.14 pmol
Apical to basal transport (Caco-2 cell monolayers; [19]): 22.40 pmol and 22.80 pmol and 23.02 pmol
Basal to apical transport (Caco-2 cell monolayers; [19]): 19.96 pmol and 21.78 pmol and 20.68 pmol
Apical to basal transport (Caco-2 cell monolayers; [23]): 30.94 pmol and 32.48 pmol and 35.44 pmol
Basal to apical transport (Caco-2 cell monolayers; [23]): 26.24 pmol and 28.48 pmol and 32.82 pmol
PappAB (Caco-2 cell monolayers; PZQ alone, MOESM4): 89.9 ×10⁻⁶ cm/s and 62.5 ×10⁻⁶ cm/s and 76.8 ×10⁻⁶ cm/s
PappBA (Caco-2 cell monolayers; PZQ alone, MOESM4): 84.6 ×10⁻⁶ cm/s and 77.5 ×10⁻⁶ cm/s and 95.4 ×10⁻⁶ cm/s
Effect on the transport of ARVs (Caco-2 cell monolayers; [26]): did not appear to significantly influence
